Assay results: patent US20230114728A1 (Venatorx Pharmaceuticals, Inc., priority 2019, published 2023)
≈ marks a conversion by molar mass, not a printed value.

Columns and labels:
P. aeruginosa ATCC 35151 = experiment: Broth microdilution MIC in CAMHB; assay type: cell-based; details: Pseudomonas aeruginosa, ATCC35151; MHB; hyper-permeable strain; read-out: Minimum Inhibitory Concentration, P. aeruginosa ATCC 35151
Procedure, shortened: (§1)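 Lowest compound concentration with no visible growth after 16-20 h at 37 °C defines MIC. Plates of 2-fold serial dilutions in cation-adjusted Mueller Hinton broth received 2-8×10^5 CFU/mL of exponentially grown cells, per CLSI methods; panel spans reference, hyper-permeable and efflux-pump-deleted strains.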

P. aeruginosa ATCC 27853 = experiment: Broth microdilution MIC in CAMHB; assay type: cell-based; details: Pseudomonas aeruginosa, ATCC27853; MHB; read-out: Minimum Inhibitory Concentration, P. aeruginosa ATCC 27853
Procedure, shortened: as §1

[1] = tested on: K. pneumoniae SI-117 producing VIM-1; experiment: Broth microdilution MIC in CAMHB; assay type: cell-based; details: Klebsiella pneumoniae, read-out: Minimum Inhibitory Concentration, K. pneumoniae SI-117
Procedure, shortened: as §1

E. coli AG100A = experiment: Broth microdilution MIC in CAMHB; assay type: cell-based; details: Escherichia coli, read-out: Minimum Inhibitory Concentration, E. coli AG100A
Procedure, shortened: as §1

E. coli AG100 = experiment: Broth microdilution MIC in CAMHB; assay type: cell-based; details: Escherichia coli; E. coli AG100 (wild-type parent); MHB; read-out: Minimum Inhibitory Concentration, E. coli AG100
Procedure, shortened: as §1

[2] = tested on: K. pneumoniae 848844 producing SHV-11 and KPC-2; experiment: Broth microdilution MIC in CAMHB; assay type: cell-based; details: Klebsiella pneumoniae, read-out: Minimum Inhibitory Concentration, K. pneumoniae 848844
Procedure, shortened: as §1

E. coli D22 = experiment: Broth microdilution MIC in CAMHB; assay type: cell-based; details: Escherichia coli; E. coli D22 (hyper-permeable); MHB; read-out: Minimum Inhibitory Concentration, E. coli D22
Procedure, shortened: as §1

E. coli ATCC 25922 = experiment: Broth microdilution MIC in CAMHB; assay type: cell-based; details: Escherichia coli, ATCC25922; E. coli ATCC 25922; MHB; read-out: Minimum Inhibitory Concentration, E. coli 25922
Procedure, shortened: as §1

E. coli K12 PBP3 = molecular target: T1, E. coli K12 PBP3 (Escherichia coli, UniProt P0AD68); experiment: biochemical; assay type: binding
T1 construct: made in house
T1 sequence (P0AD68 1-577): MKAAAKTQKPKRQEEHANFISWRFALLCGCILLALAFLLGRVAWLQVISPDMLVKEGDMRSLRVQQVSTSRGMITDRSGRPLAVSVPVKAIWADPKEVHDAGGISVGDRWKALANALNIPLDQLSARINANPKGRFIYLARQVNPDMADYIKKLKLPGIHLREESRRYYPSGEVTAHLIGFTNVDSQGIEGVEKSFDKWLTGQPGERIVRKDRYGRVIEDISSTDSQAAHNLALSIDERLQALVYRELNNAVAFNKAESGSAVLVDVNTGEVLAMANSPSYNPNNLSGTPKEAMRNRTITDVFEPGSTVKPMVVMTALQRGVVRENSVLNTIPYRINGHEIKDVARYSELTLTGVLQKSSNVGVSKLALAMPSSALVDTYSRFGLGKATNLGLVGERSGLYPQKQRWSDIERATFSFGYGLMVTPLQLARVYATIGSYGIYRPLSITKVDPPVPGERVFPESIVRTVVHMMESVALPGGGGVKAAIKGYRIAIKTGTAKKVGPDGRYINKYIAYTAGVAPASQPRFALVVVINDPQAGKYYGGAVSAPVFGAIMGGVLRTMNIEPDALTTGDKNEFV
Procedure, shortened: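 A. baumannii PBP2 (2.5 μM) and PBP3 (0.2 μM) were run in 25 mM Tris pH 8.0 buffer with Tween 20; E. coli PBP3 (1.5 μM) and N. gonorrhoeae PBP2 ([…]) in 50 mM Hepes pH 8.0 buffer.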

SMILES	MIC (P. aeruginosa ATCC 35151) [µg/mL]	MIC (P. aeruginosa ATCC 27853) [µg/mL]	MIC [1] [µg/mL]	MIC (E. coli AG100A) [µg/mL]	MIC (E. coli AG100) [µg/mL]	MIC [2] [µg/mL]	MIC (E. coli D22) [µg/mL]	MIC (E. coli ATCC 25922) [µg/mL]	EC50 (E. coli K12 PBP3) [µM]
CCN1CCN(C(=O)NC(C(=O)N[C@H]2Cc3cccc(C(=O)O)c3OB2O)c2ccc(C(=O)O)c(O)c2)C(=O)C1=O (stereo partly drawn) [Example 196, (3R)-3-(2-(4-carboxy-3-hydroxyphenyl)-2-(4-ethyl-2,3-dioxopiperazine-1-carboxamido)acetamido)-2-hydroxy-3,4-dihydro-2H-benzo[e][1,2]oxaborinine-8-carboxylic acid]	< 0.25	32 to 64 (≈ 56.3 to 113 µM)	32 to 64 (≈ 56.3 to 113 µM)	2 to 4 (≈ 3.52 to 7.04 µM)	32 to 64 (≈ 56.3 to 113 µM)	32 to 64 (≈ 56.3 to 113 µM)	0.5 to 1 (≈ 0.88 to 1.76 µM)	32 to 64 (≈ 56.3 to 113 µM)	< 30
CCN1CCN(C(=O)NC(C(=O)N[C@H]2Cc3cccc(C(=O)O)c3OB2O)c2cc(NS(N)(=O)=O)ccc2F)C(=O)C1=O (stereo partly drawn) [Example 197, (3R)-3-(2-(4-ethyl-2,3-dioxopiperazine-1-carboxamido)-2-(2-fluoro-5-(sulfamoylamino)phenyl)acetamido)-2-hydroxy-3,4-dihydro-2H-benzo[e][1,2]oxaborinine-8-carboxylic acid]	< 0.25	> 128	32 to 64 (≈ 51.6 to 103 µM)	0.5 to 1 (≈ 0.806 to 1.61 µM)	8 to 16 (≈ 12.9 to 25.8 µM)	> 128	0.5 to 1 (≈ 0.806 to 1.61 µM)	8 to 16 (≈ 12.9 to 25.8 µM)	< 30
NS(=O)(=O)Nc1ccc(F)c(C(NC(=O)N2CCN(CCF)C(=O)C2=O)C(=O)N[C@H]2Cc3cccc(C(=O)O)c3OB2O)c1 (stereo partly drawn) [Example 198, (3R)-3-(2-(2-fluoro-5-(sulfamoylamino)phenyl)-2-(4-(2-fluoroethyl)-2,3-dioxopiperazine-1-carboxamido)acetamido)-2-hydroxy-3,4-dihydro-2H-benzo[e][1,2]oxaborinine-8-carboxylic acid]	0.5 to 1 (≈ 0.783 to 1.57 µM)	> 128	32 to 64 (≈ 50.1 to 100 µM)	0.5 to 1 (≈ 0.783 to 1.57 µM)	8 to 16 (≈ 12.5 to 25.1 µM)	> 128	0.5 to 1 (≈ 0.783 to 1.57 µM)	8 to 16 (≈ 12.5 to 25.1 µM)	< 30
CCN1CCN(C(=O)NC(C(=O)N[C@H]2Cc3cccc(C(=O)O)c3OB2O)c2ccc(C(=O)O)c(Cl)c2Cl)C(=O)C1=O (stereo partly drawn) [Example 201, (3R)-3-(2-(4-carboxy-2,3-dichlorophenyl)-2-(4-ethyl-2,3-dioxopiperazine-1-carboxamido)acetamido)-2-hydroxy-3,4-dihydro-2H-benzo[e][1,2]oxaborinine-8-carboxylic acid]	0.5 to 1 (≈ 0.805 to 1.61 µM)	> 128	> 128	32 to 64 (≈ 51.5 to 103 µM)	> 128	> 128	2 to 4 (≈ 3.22 to 6.44 µM)	> 128	< 30
CCN1CCN(C(=O)NC(C(=O)N[C@H]2Cc3cccc(C(=O)O)c3OB2O)c2cc(C#N)c(O)cc2F)C(=O)C1=O (stereo partly drawn) [Example 209, (3R)-3-(2-(5-cyano-2-fluoro-4-hydroxyphenyl)-2-(4-ethyl-2,3-dioxopiperazine-1-carboxamido)acetamido)-2-hydroxy-3,4-dihydro-2H-benzo[e][1,2]oxaborinine-8-carboxylic acid]	< 0.25	> 128	> 128	2 to 4 (≈ 3.53 to 7.05 µM)	32 to 64 (≈ 56.4 to 113 µM)	> 128	2 to 4 (≈ 3.53 to 7.05 µM)	32 to 64 (≈ 56.4 to 113 µM)	< 30
O=C(O)c1cccc2c1OB(O)[C@@H](NC(=O)C(NC(=O)N1CCN(C3CNC3)C(=O)C1=O)c1c(F)cc(O)cc1F)C2 (stereo partly drawn) [Example 212, (3R)-3-(2-(4-(azetidin-3-yl)-2,3-dioxopiperazine-1-carboxamido)-2-(2,6-difluoro-4-hydroxyphenyl)acetamido)-2-hydroxy-3,4-dihydro-2H-benzo[e][1,2]oxaborinine-8-carboxylic acid]	0.5 to 1 (≈ 0.851 to 1.7 µM)	> 128	32 to 64 (≈ 54.5 to 109 µM)	2 to 4 (≈ 3.41 to 6.81 µM)	8 to 16 (≈ 13.6 to 27.2 µM)	32 to 64 (≈ 54.5 to 109 µM)	2 to 4 (≈ 3.41 to 6.81 µM)	8 to 16 (≈ 13.6 to 27.2 µM)	< 30
CCN1CCN(C(=O)NC(C(=O)N[C@H]2Cc3cccc(C(=O)O)c3OB2O)c2c(F)cc(NC(=O)NC)cc2F)C(=O)C1=O (stereo partly drawn) [Example 213, (3R)-3-(2-(2,6-difluoro-4-(3-methylureido)phenyl)-2-(4-ethyl-2,3-dioxopiperazine-1-carboxamido)acetamido)-2-hydroxy-3,4-dihydro-2H-benzo[e][1,2]oxaborinine-8-carboxylic acid]	0.5 to 1 (≈ 0.811 to 1.62 µM)	> 128	> 128	2 to 4 (≈ 3.24 to 6.49 µM)	32 to 64 (≈ 51.9 to 104 µM)	> 128	2 to 4 (≈ 3.24 to 6.49 µM)	32 to 64 (≈ 51.9 to 104 µM)	< 30
